From US9145374B2, “Shikimate pathway inhibitors and the use thereof” (National Tsing Hua University, priority 2013, dated 2015)
Converted amounts (≈) assume the structure as drawn. “And” between values parts separate entries of the source, which are not always exact repeats. Identical values can stand only once.

What was measured:
H. pylori [1] = test: Synergistic effect of compound 25a in MBC test against H. pylori; format: cell-based, Helicobacter pylori; details: for MBC: Helicobacter pylori, 24 h, read-out: MBC, single treatment
[2] = biological target: T1, H. pylori Shikimate Dehydrogenase (HpSDH) (Helicobacter pylori, UniProt P56119); test: Inhibition activity assay toward HpSDH; format: biochemical; details: for IC50: IC50 toward HpSDH, wild type (26695) HpSDH recombinant protein; for inhibition activity toward HpSDH (in words): preliminary screening concentration 100 μM
T1 construct: made in house; host or cells: E. coli BL21
Text: The recombinant HpSDH (aroE) was cloned in pET-28a plasmid and transformed into E. coli strain BL21 as expression host.
Relative HpSDH activity calculations were based on the initial velocity that absorbance at the 5 to 10% of the time when reaction absorbance reached the maximum level. The variable slope of this time interval represented the reaction rate of HpSDH at various concentration of compound and normalized with the negative control HpSDH (without inhibitor) which represented 100% activity.
To evaluate structure activity relationship (SAR), all the synthesized compounds in SDH inhibition activity on wild type HpSDH recombinant protein was evaluated. All the datas of effective compounds were expressed as IC50 value after treated with different compounds. In priminary screening, using 100 μM as priminary screening concentration to evaluate all synthesized compounds.
(§1) The enzymatic activity of HpSDH was measured in the direction of reduction of NADP^+ to NADPH in the present of shikimic acid at 340 nm absorbance and conducted in 96-well plate ELISA reader. The final concentration of shikimic acid and NADP^+ were 2 mM, and the final protein concentration was 100 nM. Shikimic acid was added by injector needle equipped in ELISA reader to ensure the measurements were made at the same time spacing. NADPH would accumulate along with reaction, and the absorbance at 340 nm would be measured in every cycle of HpSDH reaction.

H. pylori [3] = test: Minimum bactericidal concentration assay (MBC assay) against H. pylori; format: cell-based, Helicobacter pylori; details: for MBC: Helicobacter pylori
Method: To evaluate the anti-H. pylori activity, the minimum bactericidal concentration (MBC) value of compounds was determined. The MBC value of standard antibiotics, clarithromycine (CLR) and metronidazole (MTZ) were served as the positive control.
Wild type (26695, as reference strain) was cultured on brucella broth agar plate containing 1% IsovialeX (Becton, Dickinson and Company, USA) and 10% sheep blood in microaerophilic environment (5% O2, 10% CO2, and 85% N2), 37° C. Clinical strains (v574, v633, v1086, v1254, v1267, v1354 and v2311) were cultured on brucella broth agar plate containing 1% IsovialeX and 20%-30% sheep blood in microaerophilic environment (5% O2, 10% CO2, and 85% N2), 37° C.
Wild type and selected clinical H. pylori strains was cultured for 24 to 36 hours and measured by Cell density meter, O.D. 680 at 0.87-0.9. H. pylori and selected compounds with serial concentration were mixed in Brucella-broth (BD) with 10% of FBS in 24-well plate, and total volume of each well was 300 μl, cultured under 37° C. with 180 rpm shaking. After incubated for 24 hours, 3 μl of each well was seeding on blood agar plate for another 48 hours culture. […] The final concentration of DMSO in the assay was less than 5% to avoid any effect in the growth of H. pylori at this experiment.

[4] = biological target: T1, H. pylori Shikimate Dehydrogenase (HpSDH); test: Enzymatic kinetics of effective compounds toward HpSDH; format: biochemical
Method: as §1
To study the inhibition mode of these compounds and inhibition type to shikimic acid and NADP^+, different concentrations of inhibitors and graded concentrations of substrates by activity assay was examined.

T1 sequence (P56119 whole entry): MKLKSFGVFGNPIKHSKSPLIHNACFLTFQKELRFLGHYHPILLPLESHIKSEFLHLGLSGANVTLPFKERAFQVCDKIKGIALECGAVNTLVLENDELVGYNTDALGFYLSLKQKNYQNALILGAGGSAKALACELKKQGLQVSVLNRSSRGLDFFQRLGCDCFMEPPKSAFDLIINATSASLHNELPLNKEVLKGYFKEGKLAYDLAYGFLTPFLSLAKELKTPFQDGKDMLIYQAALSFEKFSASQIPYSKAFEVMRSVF

Structure (SMILES)	IC50 [2]	inhibition activity toward HpSDH (in words) [2]	MBC (H. pylori [3]; W.T 26695) [µg/mL]	MBC (H. pylori [3]; clinical isolated strain v574) [µg/mL]	MBC (H. pylori [3]; clinical isolated strain v633) [µg/mL]	MBC (H. pylori [3]; clinical isolated strain v1086) [µg/mL]	MBC (H. pylori [3]; clinical isolated strain v1254) [µg/mL]	MBC (H. pylori [3]; clinical isolated strain v1267) [µg/mL]	MBC (H. pylori [3]; clinical isolated strain v1354) [µg/mL]	MBC (H. pylori [3]; clinical isolated strain v2311) [µg/mL]	MBC value against H. pylori (H. pylori [3]; W.T 26695) [µg/mL]	also measured
Cc1ncc([N+](=O)[O-])n1CCO [MTR, metronidazole]	–	–	–	–	–	–	–	–	–	–	–	MBC (H. pylori [1]; 26695 wild type): < 1 µg/mL; MBC (H. pylori [1]; v574 MTR-resistant strain): 32 µg/mL; MBC (H. pylori [1]; v1086 CLR-resistant strain): < 1 µg/mL; growth of v574 strain (in words) (H. pylori [1]; MTR 16 mg/L alone or with compound 25a 2 mg/L): cannot suppressed the growth; dosage needed to inhibit strain v574 relative to compound 25a (H. pylori [1]; v574 metronidazole resistant strain): 5 times
O=C1NC(=O)C(=C/C=C/c2ccccc2)C(=O)N1 [7a]	32.7 µM	more effective inhibitors	–	–	–	–	–	–	–	–	–	–
COc1cccc(OC)c1/C=C/C=C1C(=O)NC(=O)NC1=O [7h]	–	more effective inhibitors	8 (≈ 26.5 µM)	8 (≈ 26.5 µM)	4 (≈ 13.2 µM)	16 (≈ 52.9 µM)	32 (≈ 106 µM)	8 (≈ 26.5 µM)	4 (≈ 13.2 µM)	16 (≈ 52.9 µM)	8.0 (≈ 26.5 µM)	MBC value against H. pylori (H. pylori [3]; clinical isolated strain v633): 4.0 µg/mL (≈ 13.2 µM); MBC value against H. pylori (H. pylori [3]; clinical isolated strain v1354): 4.0 µg/mL (≈ 13.2 µM)
O=C1NC(=O)C(=C/C=C/c2ccc([N+](=O)[O-])cc2)C(=O)N1 [7b]	–	–	8 (≈ 27.9 µM)	8 (≈ 27.9 µM)	4 (≈ 13.9 µM)	8 (≈ 27.9 µM)	8 (≈ 27.9 µM)	8 (≈ 27.9 µM)	8 (≈ 27.9 µM)	16 (≈ 55.7 µM)	8.0 (≈ 27.9 µM)	MBC value against H. pylori (H. pylori [3]; clinical isolated strain v633): 4.0 µg/mL (≈ 13.9 µM)
COc1ccccc1/C=C/C=C1C(=O)NC(=O)NC1=O [7c]	33.7 µM	more effective inhibitors	–	–	–	–	–	–	–	–	–	MBC (H. pylori [3]; 24 h, W.T 26695): 16 µg/mL (≈ 58.8 µM); MBC (H. pylori [3]; 24 h, clinical isolated strain v574): 16 µg/mL (≈ 58.8 µM); MBC (H. pylori [3]; 24 h, clinical isolated strain v633): 16 µg/mL (≈ 58.8 µM); MBC (H. pylori [3]; 24 h, clinical isolated strain v1086): 8 µg/mL (≈ 29.4 µM); MBC (H. pylori [3]; 24 h, clinical isolated strain v1254): 16 µg/mL (≈ 58.8 µM); MBC (H. pylori [3]; 24 h, clinical isolated strain v1267): 16 µg/mL (≈ 58.8 µM); MBC (H. pylori [3]; 24 h, clinical isolated strain v1354): 16 µg/mL (≈ 58.8 µM); MBC (H. pylori [3]; 24 h, clinical isolated strain v2311): 16 µg/mL (≈ 58.8 µM)
O=C1NC(=O)C(=C/C=C/c2ccc(NC(=O)c3ccccc3)cc2)C(=O)N1 [compound 17, (E)-N-(4-(3-(2,4,6-trioxotetrahydropyrimidin-5(2H)-ylidene)prop-1-en-1-yl)phenyl)benzamide]	16.1 µM and 11 to 22 µM	more effective inhibitors	16 (≈ 44.3 µM)	16 (≈ 44.3 µM)	16 (≈ 44.3 µM)	16 (≈ 44.3 µM)	16 (≈ 44.3 µM)	16 (≈ 44.3 µM)	8 (≈ 22.1 µM)	16 (≈ 44.3 µM)	–	Ki [4]: 6.93 µM; inhibition type toward NADP+ ([4]; HpSDH): competitive inhibition; inhibition type toward shikimic acid ([4]; HpSDH): non-competitive or uncompetitive
C=CCN1C(=O)NC(=O)/C(=C/C=C/c2ccccc2)C1=O [CB6942859]	–	–	5 (≈ 17.7 µM)	–	–	–	–	–	–	–	5.0 (≈ 17.7 µM)	–
